We go through four compounds from patent publication US20190016689A1, “NOVEL FLUORINATED QUINAZOLINE DERIVATIVES AS EGFR INHIBITORS” (TRILLIUM THERAPEUTICS INC., priority 2016, published 2019).

The nature of data set [1]: Chemical stability in PBS pH 7.4. The conditions noted are these: 37° C. The class given is physicochemical. How it is done:
For PBS pH7.4: Prepare 100 mM bulk Na2HPO4 solution and 100 mM bulk NaH2PO4 solution. Place Na2HPO4 solution on a stirrer and slowly add NaH2PO4 solution until the pH is nearly 7.4 (±0.05).
The working solutions of test compound and control compound chlorambucil are prepared in DMSO at the concentration of 500 μM.
Place 2 μL of working solution of each sample in order into their proper 96-well rack. Add 198 μL of pre-incubated PBS pH 7.4 or simulated intestinal fluid into each vial of the cap-less Sample plate to achieve a final concentration of […]. The assay is performed in duplicate. Seal using a molded PTFE/Silicone plug. Then transfer the Sample plate to the Eppendorf Thermomixer Comfort plate shaker and shake at 37° C. at 1100 RPM. Take one of the glass vials at designated time points including 0, 30, 60, 120 and 240 min. For each time point, the initiation of the reaction is staggered so all time points are terminated with 1000 μL of cold quench solution (acetonitrile containing internal standards (IS, 200 nM Labetalol, 100 nM Alprazolam and 2 μM Ketoprofen) at the same time. Vortex for 1 minute. Centrifuge the samples in plate at 3,220 g for 5 minutes at 4° C. Transfer 100 μL of the supernatant to a new plate. The supernatant may be diluted with 100 μL or 200 μL water according to the LC/MS signal response and peak shape. Mix well and analyze samples using LC/MS/MS.

The test system of a further data set is OVCAR-8. Kind of data set: NCI screening panel (SRB). Type of data set: cell-based. The conditions noted are these: Homo sapiens, OVCAR-8 (Ovarian), 48 h; for CC50: read-out: LC50 (the source's name).
A further data set deals with PC-3. Kind of data set: NCI screening panel (SRB). Type of data set: cell-based. The conditions noted are these: Homo sapiens, PC-3 (Prostate), 48 h; for CC50: read-out: LC50 (the source's name).
For a further data set, the system named is KM12. Kind of data set: NCI screening panel (SRB). Type of data set: cell-based. To be noted: Homo sapiens, KM12 (Colon), 48 h; for CC50: read-out: LC50 (the source's name).
A further data set deals with MCF7. Kind of data set: NCI screening panel (SRB). The class given is cell-based. The conditions noted are these: Homo sapiens, MCF7 (Breast), 48 h; for CC50: read-out: LC50 (the source's name).
The next data set deals with HL-60(TB). Kind of data set: NCI screening panel (SRB). The conditions noted are these: Homo sapiens, HL-60(TB) (Leukemia), 48 h; for CC50: read-out: LC50 (the source's name). Type of data set: cell-based.
The next data set deals with HCT-116. Kind of data set: NCI screening panel (SRB). Type of data set: cell-based. The conditions noted are these: Homo sapiens, HCT-116 (Colon), 48 h; for CC50: read-out: LC50 (the source's name).
Another data set concerns NCI-H23. Kind of data set: NCI screening panel (SRB). Type of data set: cell-based. The conditions noted are these: Homo sapiens, NCI-H23 (NSCLC), 48 h; for CC50: read-out: LC50 (the source's name).
A further data set has as its target T1, EPHA6 (Homo sapiens, UniProt Q9UF33).
T1 sequence (Q9UF33 23-1036): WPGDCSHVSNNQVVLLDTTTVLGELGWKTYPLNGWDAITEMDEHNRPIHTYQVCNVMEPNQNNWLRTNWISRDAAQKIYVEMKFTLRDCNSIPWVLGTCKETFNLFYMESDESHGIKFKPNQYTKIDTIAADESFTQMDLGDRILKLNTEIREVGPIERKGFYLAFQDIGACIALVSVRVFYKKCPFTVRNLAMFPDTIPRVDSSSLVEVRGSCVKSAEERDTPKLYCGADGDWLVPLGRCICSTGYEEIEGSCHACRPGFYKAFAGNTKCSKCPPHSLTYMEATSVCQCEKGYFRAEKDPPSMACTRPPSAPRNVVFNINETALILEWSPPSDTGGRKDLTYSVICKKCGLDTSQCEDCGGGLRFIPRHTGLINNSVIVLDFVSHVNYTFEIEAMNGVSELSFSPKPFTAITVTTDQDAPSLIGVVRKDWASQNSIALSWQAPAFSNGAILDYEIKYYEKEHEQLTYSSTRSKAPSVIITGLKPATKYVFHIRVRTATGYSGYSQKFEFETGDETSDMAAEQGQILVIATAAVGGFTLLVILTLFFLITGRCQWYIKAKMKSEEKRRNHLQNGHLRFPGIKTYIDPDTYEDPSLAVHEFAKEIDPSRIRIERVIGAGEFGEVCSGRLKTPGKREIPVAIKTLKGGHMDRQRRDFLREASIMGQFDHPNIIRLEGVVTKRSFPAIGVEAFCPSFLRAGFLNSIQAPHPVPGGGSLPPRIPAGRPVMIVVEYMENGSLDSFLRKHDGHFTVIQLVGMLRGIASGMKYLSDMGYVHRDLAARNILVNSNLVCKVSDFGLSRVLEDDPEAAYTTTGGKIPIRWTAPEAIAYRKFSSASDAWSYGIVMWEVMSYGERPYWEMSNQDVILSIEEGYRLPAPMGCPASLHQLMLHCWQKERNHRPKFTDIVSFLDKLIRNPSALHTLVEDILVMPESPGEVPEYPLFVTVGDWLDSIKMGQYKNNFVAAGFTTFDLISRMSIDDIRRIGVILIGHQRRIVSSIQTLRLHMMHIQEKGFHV
Kind of data set: Kinase assays, selectivity panel (qPCR). The conditions noted are these: read-out: % Control @ 300 nM. (In general: In qPCR the cycle at which signal appears reflects the starting amount.)

Another data set has as its system SF-268. Kind of data set: NCI screening panel (SRB). The class given is cell-based. To be noted: Homo sapiens, SF-268 (CNS), 48 h; for CC50: read-out: LC50 (the source's name).
Another data set deals with HOP-92. Kind of data set: NCI screening panel (SRB). The class given is cell-based. To be noted: Homo sapiens, HOP-92 (NSCLC), 48 h; for CC50: read-out: LC50 (the source's name).
Another data set addresses EGFR (L861Q) (Homo sapiens, UniProt P00533, L861Q). Kind of data set: Kinase assays, selectivity panel (qPCR). To be noted: read-out: % Control @ 300 nM.
A further data set deals with NCI-H322M. Kind of data set: cells. The conditions noted are these: Homo sapiens, 48 h; for CC50: read-out: LC50.

Chain of EGFR (L861Q) (P00533 25-1210 L861Q): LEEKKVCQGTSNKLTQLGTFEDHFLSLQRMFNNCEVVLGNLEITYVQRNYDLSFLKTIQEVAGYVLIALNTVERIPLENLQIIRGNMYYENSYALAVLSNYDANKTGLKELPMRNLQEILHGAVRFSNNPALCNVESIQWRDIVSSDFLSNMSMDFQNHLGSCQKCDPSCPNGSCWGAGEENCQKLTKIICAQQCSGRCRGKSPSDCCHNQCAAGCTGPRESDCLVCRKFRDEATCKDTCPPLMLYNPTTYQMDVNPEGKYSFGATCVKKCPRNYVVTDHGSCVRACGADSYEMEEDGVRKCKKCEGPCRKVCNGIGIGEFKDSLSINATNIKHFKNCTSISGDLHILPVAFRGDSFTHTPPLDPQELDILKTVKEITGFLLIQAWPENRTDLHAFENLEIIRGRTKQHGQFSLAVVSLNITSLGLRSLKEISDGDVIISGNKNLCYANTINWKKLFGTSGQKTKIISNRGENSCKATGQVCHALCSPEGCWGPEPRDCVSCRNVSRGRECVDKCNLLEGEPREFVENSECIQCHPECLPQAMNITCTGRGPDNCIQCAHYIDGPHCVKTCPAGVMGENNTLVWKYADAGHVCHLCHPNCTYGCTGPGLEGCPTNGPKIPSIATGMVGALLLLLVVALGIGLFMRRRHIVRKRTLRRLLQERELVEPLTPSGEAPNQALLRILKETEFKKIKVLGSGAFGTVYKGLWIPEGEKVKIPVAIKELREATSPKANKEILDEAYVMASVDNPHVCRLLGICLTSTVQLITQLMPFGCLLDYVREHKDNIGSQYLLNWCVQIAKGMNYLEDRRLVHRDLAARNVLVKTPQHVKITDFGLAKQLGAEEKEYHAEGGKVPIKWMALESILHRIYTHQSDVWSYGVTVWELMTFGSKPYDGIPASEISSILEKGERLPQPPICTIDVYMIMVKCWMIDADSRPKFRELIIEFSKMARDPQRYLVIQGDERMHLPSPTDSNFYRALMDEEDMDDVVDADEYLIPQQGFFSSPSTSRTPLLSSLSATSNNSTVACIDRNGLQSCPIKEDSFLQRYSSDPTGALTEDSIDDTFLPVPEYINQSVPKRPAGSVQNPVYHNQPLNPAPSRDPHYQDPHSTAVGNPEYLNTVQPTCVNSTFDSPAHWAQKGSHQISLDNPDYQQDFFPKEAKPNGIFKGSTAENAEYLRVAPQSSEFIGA

Regarding `CN(C)C/C=C/C(=O)Nc1cc2c(Nc3ccc(F)c(Cl)c3)ncnc2cc1O[C@H]1CCOC1` [Afatinib, reference compound], the “Remaining Percentage (%) in PBS at pH 7.4” value was found to be 101.12% in data set [1] (120 min) and 105.37% in data set [1] (240 min).

As for `CN(C)C/C=C/C(=O)Nc1cc2c(Nc3cccc(Cl)c3F)ncnc2cc1OCCOC(F)F.O=C(O)/C=C\C(=O)O` [Example I-5-MA, (E)-N-[4-(3-chloro-2-fluoro-anilino)-7-[2-(difluoromethoxy)ethoxy]quinazolin-6-yl]-4-(dimethylamino)but-2-enamide dimaleic acid salt], the “Remaining Percentage (%) in PBS at pH 7.4” value in data set [1] (120 min) was determined as 94.70%; in data set [1] (240 min), 91.17%.

For the compound `CN(C)C/C=C/C(=O)Nc1cc2c(Nc3ccc(F)c(Cl)c3F)ncnc2cc1OCCOC(F)F.O=C(O)/C=C\C(=O)O.O=C(O)/C=C\C(=O)O` [Example I-9-MA, (E)-N-[4-(3-chloro-2,4-difluoro-anilino)-7-[2-(difluoromethoxy)ethoxy]quinazolin-6-yl]-4-(dimethylamino)but-2-enamide di-maleic acid salt], the GI50 was 1.09 µM with OVCAR-8; 2.55 µM in the data set with PC-3; 1.88 µM with KM12; 1.4 µM in the data set on MCF7; 1.73 µM in the data set on HL-60(TB); 0.483 µM in the data set with HCT-116. Further, the GI50 with NCI-H23 was 1.38 µM; in the data set with SF-268 it was 0.747 µM; in the data set with HOP-92, 0.185 µM; with NCI-H322M, below 0.01 µM. For the same compound, the CC50 was found to be 32.7 µM with OVCAR-8; 58.5 µM in the data set on PC-3; 29.2 µM with KM12; 57.8 µM with MCF7; 32.2 µM in the data set with HL-60(TB); 22.4 µM with HCT-116. Besides, the CC50 in the data set on NCI-H23 worked out at 15.4 µM; with SF-268, 27.3 µM; in the data set on HOP-92, 31.2 µM; in the data set on NCI-H322M, 28.2 µM. Besides, the values for the remaining activity at 0.3 µM at EPHA6 and at EGFR (L861Q) were 3.5% and 0.1%, respectively.

In the case of `O=C(/C=C/CN1CCCCC1)Nc1cc2c(Nc3ccc(F)c(Cl)c3F)ncnc2cc1OCCOC(F)F.O=C(O)/C=C\C(=O)O.O=C(O)/C=C\C(=O)O` [Example I-10-MA, (E)-N-[4-(3-chloro-2,4-difluoro-anilino)-7-[2-(difluoromethoxy)ethoxy]quinazolin-6-yl]-4-(1-piperidyl)but-2-enamide di-maleic acid salt], the GI50 with OVCAR-8 stood at 1.35 µM; in the data set with PC-3, 2.38 µM; with KM12, 2.67 µM; with MCF7, 1.84 µM; in the data set with HL-60(TB) it was 1.75 µM; in the data set with HCT-116, 1.54 µM. For the same compound, the GI50 in the data set on NCI-H23 is 2.09 µM; in the data set with SF-268, 1.25 µM; in the data set on HOP-92, 0.151 µM; in the data set with NCI-H322M, below 0.01 µM. The CC50 in the data set on OVCAR-8 was above 100 µM; in the data set with PC-3 it was 51 µM; in the data set with KM12, 34.3 µM; in the data set with MCF7, 59.8 µM; in the data set with HL-60(TB), 30.8 µM; with HCT-116, 88.9 µM. The CC50 in the data set on NCI-H23 is above 100 µM; in the data set with SF-268 it was 41.7 µM; in the data set on HOP-92 it was 21.1 µM; in the data set with NCI-H322M, 30.3 µM. For the same compound, the remaining activity at 0.3 µM came to 3.9% on EPHA6 and 0.75% at EGFR (L861Q).

One may read the GI50 as the concentration at which growth is held to half of that of the control. A lower GI50 goes with more potent growth inhibition.
